Columns and labels:
Trypanosoma cruzi [1] = experiment: GSK_TCAKS: pIC50 Trypanosoma cruzi viability assay using beta-GAL activity. This assay was run at single shot at 5uM compound concentration per well. The biological reagents consisted of NIH-3T3 host cells and trypomastigotes parasitic cells; both cell types were set to a 3.3 * 10^5 cells/mL dilution in assay DMEM by means of a CASY cell counter device using a 60um capillary. 6 uL of the mixture were dispensed per well (about 1 * 10^3 host-cells and 1 * 10^3 parasites) with a Multidrop Combi dispenser. […] In all wells, the percentage of DMSO never exceeded 0.5%. Plates incubated for four days at 37C, 5% CO2. The substrate used for the assay fluorescence intensity (FLINT) readout was resorufin-beta-D-galactopiranoside (Sigma-Aldrich) at 5uM per well. It was diluted in PBS supplemented with the soft detergent Igepal (Fluka).; format: functional, organism-based, Mus musculus; conditions: Tulahuen, NIH3T3
[2] = tested on: Trypanosoma brucei brucei; experiment: GSK_TCAKS: pIC50 Trypanosoma brucei viability assay using fluorescence intensity. Assay plates (1536-well) were prepared by dispensing 25nL of compound solution per well using an Echo acoustic dispenser (Labcyte).; format: functional, organism-based; conditions: Lister 427, 2 h
Leishmania donovani [3] = experiment: (§1) GSK_TCAKS: pIC50 Leishmania donovani Imaging: THP-1 Host Macrophages. Assay plates (384-well) were prepared by adding 250nL of compound to each well. For single shot assay, the final compound concentration was 5 uM. […] Automated image analysis was performed with a script developed on Acapella High Content Imaging and Analysis Software (PerkinElmer). Output: THP-1 cell count were reported for each well.; format: functional, organism-based, Homo sapiens
Leishmania donovani [4] = experiment: as §1, with “Amastigotes/Macrophages.” for “THP-1 Host Macrophages.”, “Average number of amastigotes per macrophage” for “THP-1”, “cell” for “cell count”; format: functional, organism-based, Homo sapiens; conditions: THP-1
Trypanosoma cruzi [5] = experiment: (§2) GSK_TCAKS: pIC50 H2C9 Imaging: H9c2 Host Cardiomyocytes. […] Cells were then washed once with PBS before infection. T. cruzi trypomastigotes, collected at days 5 to 8 after infection from LLC-MK2 parasite infected cultures, were allowed to swim out for 4h at 37C from a centrifuged pellet (2,500 rpm/10 min/room temperature). Trypomastigotes were then collected and counted in a CASY Cell Counter. Trypomastigotes, in supplemented DMEM, were added to H9c2 cultures in a multiplicity of infection of 1 and incubated for 18 h. Cells were washed once with PBS before incubation of the infected H9c2 monolayer with trypsin (Life-Technologies) to detach cells from the flask. Cells were counted in a CASY Cell Counter using a 150 um capillary and their density set at 5 * 10^4 cells per mL in supplemented assay DMEM. Infected H9c2 were dispensed into 384-well poly-lysine coated assay plates at 50uL per well using a Multidrop Combi dispenser. After seeding them, the plates were incubated at 37C, 5% CO2 for 72h. Cultures were then fixed and stained by addition of 50 uL of a solution containing 8% formaldehyde and 4 uM DRAQ5 DNA dye (BioStatus, UK) per well. […] Five images were collected per well for reliable statistical analysis. Automated image analysis was performed with a script developed on Acapella High Content Imaging and Analysis Software (PerkinElmer). Output: Number of H9c2 Host Cardiomyocytes nuclei to determine drug-related cytotoxicity.; format: functional, organism-based, Rattus norvegicus; conditions: H9c2, 4 h
[6] = tested on: Trypanosoma brucei brucei; experiment: GSK_TCAKS: pIC50 Trypanosoma brucei viability assay using luminiscence. Assay plates (1536-well) were prepared. T. brucei cultures were harvested and counted in a CASY cell counter. A parasite suspension was prepared at a final concentration of 5 * 10^4 cells/mL in complete HMI9 medium and 6uL was dispensed to all wells containing compounds using a Multidrop Combi dispenser. 6uL of HMI9 media with 0.4% DMSO were dispensed to control columns. Plates were incubated for 24 h at 37C, 5% CO2 then tempered for 10 min at room temperature. ATP content was quantified by adding 4 uL of CellTiter-Glo Reagent (Promega) according to the manufacturer's instructions. Luminescence was measured using a ViewLux.; format: functional, organism-based; conditions: Lister 427, CASY
Trypanosoma cruzi [7] = experiment: as §2, with “Trypanosoma cruzi” for “H2C9”, “Amastigotes/Cell.” for “H9c2 Host Cardiomyocytes.”, “number” for “Number”, “amastigotes per cell as infection level measurement.” for “H9c2 Host Cardiomyocytes nuclei to determine drug-related cytotoxicity.”; format: functional, organism-based, Rattus norvegicus; conditions: H9c2, 4 h
Leishmania donovani [8] = experiment: as §1, with “Infected” for “THP-1 Host”, “Percent of infected macrophage cells” for “THP-1 cell count”; format: functional, organism-based, Homo sapiens; conditions: THP-1
Trypanosoma cruzi [9] = experiment: as §2, with “Trypanosoma cruzi” for “H2C9”, “Infected Cells.” for “H9c2 Host Cardiomyocytes.”, “percentage” for “Number”, “infected cells per well as a second infection marker.” for “H9c2 Host Cardiomyocytes nuclei to determine drug-related cytotoxicity.”; format: functional, organism-based, Rattus norvegicus; conditions: H9c2, 4 h
[10] = target: Sterol 14-alpha demethylase (Trypanosoma cruzi (strain CL Brener), UniProt Q7Z1V1); experiment: GSK_TCAKS: pIC50 CYP51 from Trypanosoma cruzi.; format: functional
Chain of Sterol 14-alpha demethylase (Q7Z1V1 whole entry): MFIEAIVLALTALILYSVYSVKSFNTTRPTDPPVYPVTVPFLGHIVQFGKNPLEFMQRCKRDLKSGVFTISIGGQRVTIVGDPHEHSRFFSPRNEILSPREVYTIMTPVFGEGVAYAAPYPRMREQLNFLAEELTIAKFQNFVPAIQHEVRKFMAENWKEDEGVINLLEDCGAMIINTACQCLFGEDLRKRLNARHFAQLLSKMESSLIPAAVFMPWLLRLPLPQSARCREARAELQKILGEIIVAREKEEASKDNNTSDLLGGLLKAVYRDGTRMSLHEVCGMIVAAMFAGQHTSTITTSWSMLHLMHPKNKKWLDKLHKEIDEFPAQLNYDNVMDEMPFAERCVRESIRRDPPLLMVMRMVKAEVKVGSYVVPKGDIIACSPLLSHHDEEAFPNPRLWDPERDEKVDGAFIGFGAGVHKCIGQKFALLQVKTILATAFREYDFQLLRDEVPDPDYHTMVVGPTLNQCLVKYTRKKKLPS

Leishmania donovani [11] = experiment: GSK_TCAKS: pIC50 Leishmania donovani viability assay using fluorescence intensity. Assay plates (1536-well) were prepared by adding 30nL per well of compound. For single shot assay, the final compound concentration was 5uM. […] Briefly, eGFP LdBOB axenic amastigotes were harvested, fixed and counted in a CASY cell counter (Roche-Applied Science). A final concentration of 1.5 * 10^5 cells per well were prepared in amastigote media containing 500 U/mL penicillin/streptomycin (Invitrogen) and 6uL was dispensed to each experimental well using a Multidrop Combi dispenser (Thermo Scientific). 6uL of assay media was dispensed to control columns used as reference for 100% compound response. Following incubation for 72 h at 37C, 5% CO2, 2 uL of resazurin was added to each well at a final concentration of 0.5 mM in phosphate buffered saline (PBS) with IGEPAL (Sigma-Aldrich), 0.05% (v/v).; format: functional, organism-based
[12] = GSK_TCAKS: pIC50 HepG2 human cell line viability assay using luminiscence. […] Seeding density was checked to ensure that new mono-layers were not more than 50% confluent at the time of harvesting. Cell suspension was added to 500 mL of the same medium at a final density of 1.2 * 10^5 cells/mL. This cell suspension was dispensed (25 uL, 3000 cells per well) into 384-well clear-bottom plates using a Multidrop Combi dispenser. Prior to addition of the cell suspension, the screening compounds (250 nL) were pre-dispensed into the plates with an Echo liquid handler. Plates were incubated for 48 h at 37C, 5% CO2. After incubation, plates equilibrated at room temperature for 30 min before proceeding to develop the luminescent signal. The signal developer, CellTiter-Glo Reagent, was allowed to equilibrate at room temperature for 30 min and added to the plates (25uL per well) using a Multidrop Combi dispenser. Plates were left for 10 min at room temperature for stabilization and then read using a ViewLux.; format: toxicity, cell-based

| Compound | IC50 (Trypanosoma cruzi [1]) | IC50 [2] | IC50 (Leishmania donovani [3]) | IC50 (Leishmania donovani [4]) | IC50 (Trypanosoma cruzi [5]) | IC50 [6] | IC50 (Trypanosoma cruzi [7]) | IC50 (Leishmania donovani [8]) | IC50 (Trypanosoma cruzi [9]) | IC50 [10] | IC50 (Leishmania donovani [11]) | IC50 at 48 h [12] |
| --- | --- | --- | --- | --- | --- | --- | --- | --- | --- | --- | --- | --- |
| CS(=O)(=O)c1ccc(Nc2nccc(Nc3n[nH]c4ccc(F)cc34)n2)c(F)c1 | 7.94 µM | 0.501 µM | 15.8 µM | 10 µM | 15.8 µM | 0.794 µM | 3.98 µM | 12.6 µM | 31.6 µM | 39.8 µM | 12.6 µM | 79.4 µM |
| CCc1c(C)nc(-n2nc(C)cc2NC(=O)COc2ccccc2F)[nH]c1=O | 0.631 µM | 0.158 µM | 3.98 µM | 5.01 µM | 2.51 µM | 0.2 µM | 0.158 µM | 7.94 µM | 0.631 µM | > 100 µM | 0.126 µM | > 100 µM |
| O=C(NCC1CCCCN1C(=O)c1cccc2ccccc12)c1ccccc1 (stereo unspecified) | 6.31 µM | 0.398 µM | > 50.1 µM | > 50.1 µM | > 50.1 µM | 0.398 µM | 3.16 µM | > 50.1 µM | 5.01 µM | > 100 µM | > 50.1 µM | > 100 µM |
| Nc1nc(-c2ccccc2)cc(-c2nc3cccnc3[nH]2)n1 | 3.16 µM | 10 µM | > 50.1 µM | 2.51 µM | 12.6 µM | 15.8 µM | 1.58 µM | 2.51 µM | 2 µM | > 100 µM | 3.98 µM | 39.8 µM |
| O=C(COc1nn(-c2ccccc2)c2ncccc12)NCc1ccccc1 | 12.6 µM | > 39.8 µM | > 50.1 µM | 0.0794 µM | > 50.1 µM | > 39.8 µM | 31.6 µM | 0.316 µM | > 50.1 µM | 6.31 µM | 0.398 µM | > 100 µM |
| CCCCc1cc(Nc2cc(C3CCC3)[nH]n2)nc(N2CCC2C(N)=O)n1 (stereo unspecified) | 3.16 µM | 0.126 µM | 1 µM | 0.631 µM | 0.794 µM | 0.158 µM | 1.58 µM | 2 µM | 3.16 µM | > 100 µM | 3.98 µM | > 100 µM |
| O=C(Cn1cnc2c(-c3ccccc3)csc2c1=O)N1CCCCC1 | 3.55 µM | 0.794 µM | > 50.1 µM | > 50.1 µM | > 50.1 µM | 1 µM | 3.16 µM | > 50.1 µM | 3.98 µM | 39.8 µM | > 50.1 µM | > 100 µM |
| COc1cccc(-c2c(C)nn(-c3nc(N)nc(-c4ccccn4)n3)c2N)c1 | 2.51 µM | > 39.8 µM | > 50.1 µM | 1.58 µM | > 50.1 µM | > 39.8 µM | 0.501 µM | 2 µM | 2 µM | > 100 µM | 5.01 µM | > 100 µM |

— ChEMBL document CHEMBL3430912, “GSK Tres Cantos Anti-Kinetoplastid Screening (TCAKS) Data”
